Experimental data reported in patent publication US20090088323A1, “Compositions with cyclopropenes and adjuvants” (priority 2004, published 2009).

Legend:
[1] = system: Tomatoes (Rutgers 39 Variety); assay: Tomato epinasty test (foliar spray to run off, then ethylene exposure); assay type: in vivo
Method: Tomato epinasty tests were performed as follows:
Two seeds were place in each pot. Plants that had expanded first true leaves and were between 3 and 5 inches high were used for the tomato epinasty test.
To conduct the assay, the plants were sprayed-to run off with the test 1-MCP foliar spray and allowed to dry for 4 hours in sunlight These operations were performed in a ventilated area away from the plants growing in the greenhouse so there would not be any unintended treatment to growing plants destined for later experiments.
(§1) The 1-MCP treated plants and both treated and untreated controls were placed into an SLX controlled-atmosphere shipping box and sealed. To the box, ethylene was injected through a septum, which gave a concentration of 14 ppm. The plants were held sealed for 12-14 hours in the dark with ethylene in the atmosphere. At the end of ethylene treatment, the box was opened and scored for epinasty. Scoring for epinasty was accomplished by using the following scoring system for each pot. • 1. 0% no epinasty (100% control) • 2. 20% A couple leaves show some drooping (80% control) • 3. 50% Plants show 50% of full response. Not all leaves need to show effect. (50% control) • 4. 80% Almost all leaves drooping and some show underside of leaf exposed on top. (20% control) • 5. 100% Leaves completely drooping and the underside of the leaf exposed from above. (0% control)
The score of each pot is recorded. The average of 6 or 8 pots is averaged to get a score. The percentage improvement is calculated by interpolating the percentage improvement from the control water (i.e., no additives) 1-MCP treatment.
Tomato epinasty tests were conducted using a formulation that included water, a 1-MCP α-CD complex, and sodium salt of EDTA. […] The amount of sodium salt of EDTA in each formulation was 100 ppm. In some formulations, further ingredients were included, as described in the examples below.
Tomato epinasty tests were conducted using a formulation that included water; a 1-MCP α-CD complex that contained 0. […] The amount of 1-MCP α-CD complex was chosen so that the spray formulation had 1.2 ppm of 1-MCP. The amount of sodium salt of EDTA was kept at 50 ppm in the liquid. Also included in the spray formulations were various silicone oils (0.1% by weight based on the weight of the spray).
The amount of 1-MCP α-CD complex was chosen so that the spray formulation had 1.2 ppm of 1-MCP. The amount of sodium salt of EDTA was kept at 50 ppm. Also included in the spray formulations were various silicone oils at 0.1% by weight based on the weight of the spray formulation and sodium dioctylsufosuccinate surfactant at 0.05% by weight based on the weight of the spray formulation.

[2] = system: Tomatoes (Rutgers 39 Variety); assay: Tomato epinasty test, plants sprayed in spray hood with motorized track sprayer; assay type: in vivo; details: 1-MCP spray rate 20 grams/hectare, no adjuvant
Method: Tomatoes (Rutgers 39 Variety Harris Seeds No 885 Lot 37729-A3) were grown in 2 ½″ square pots filled with a commercial potting mix. Two seeds were place in each pot. Plants that had expanded first true leaves and were between 3 and 5 inches high were used for the tomato epinasty test.
as §1
The score of each pot is recorded. The average of 6 or 8 pots is averaged to get a score. The percentage improvement is calculated by interpolating the percentage improvement from the control water (i.e., no additives) 1-MCP treatment. […]

CC1=CC1 [1-MCP, 1-methylcyclopropene]
% Control of Epinasty ([1]; 1.2 ppm 1-MCP, silicone oil 0.1 weight % / sodium dioctylsulfosuccinate 0.05 weight % (0 for control), 50 ppm EDTA sodium salt): 8% | % Control of Epinasty ([1]; 1.2 ppm 1-MCP, silicone oil 0.1 weight % in spray (0 for control), 50 ppm EDTA sodium salt): 8% | % Control of Epinasty ([1]; 70 ppb 1-MCP (as α-CD complex), no adjuvants, 100 ppm EDTA sodium salt, 14 ppm ethylene 12-14 h): 10% | % Control of Epinasty ([1]; 140 ppb 1-MCP (as α-CD complex), no adjuvants, 100 ppm EDTA sodium salt): 15% | % Control of Epinasty ([1]; 280 ppb 1-MCP (as α-CD complex), no adjuvants, 100 ppm EDTA sodium salt): 35% | % Control of Epinasty ([1]; 1400 ppb 1-MCP (as α-CD complex), no adjuvants, 100 ppm EDTA sodium salt): 85% | % Control of Epinasty [2]: 26%
